# Reference: patent publication US8952024B2, “Herbicidal pyrimidone derivatives” (E I du Pont de Nemours and Company, priority 2009, dated 2015)
# Read-outs that look alike come from different tables or passages of the source.
# Columns and labels:
# Test in all cases: Test B pre-/postemergence plant response
# Type in all cases: in vivo
# [1] = test system: green foxtail (Setaria viridis); details: Setaria viridis, pre-emergence, Preemergence, read-out: Plant response rating, Foxtail, Green
# Procedure, shortened: (§1)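 Steps: sow seed in loam–sand soil and spray preemergence, or grow plants in peat-based medium to 1–4 leaves (2–18 cm) and spray postemergence; formulation is non-phytotoxic solvent plus surfactant; hold in greenhouse 13–15 days; score visually vs controls, 0 = no effect, 100 = complete control.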
# [2] = test system: johnsongrass (Sorghum halepense)
# Procedure, shortened: as §1
# kochia (Kochia scoparia) = details: Postemergence
# Procedure, shortened: as §1
# [3] = test system: large crabgrass (Digitaria sanguinalis); details: for pest or weed control at 31 g/ha: 31 g ai/ha, scale 0 to 100 (0 no effect, 100 complete control); for pest or weed control at 62 g/ha: 62 g ai/ha
# Procedure, shortened: as §1
# [4] = test system: morningglory (Ipomoea coccinea)
# Procedure, shortened: as §1
# soybean (Glycine max) = test system: soybean (Glycine max)
# Procedure, shortened: as §1
# [5] = test system: velvetleaf (Abutilon theophrasti)
# Procedure, shortened: as §1
# wild oat (Avena fatua) = test system: wild oat (Avena fatua)
# Procedure, shortened: as §1
# [6] = test system: woolly cupgrass (Eriochloa villosa); details: for pest or weed control at 31 g/ha: 31 g ai/ha, scale 0 to 100 (0 no effect, 100 complete control); for pest or weed control at 62 g/ha: 62 g ai/ha
# Procedure, shortened: as §1
# [7] = test system: yellow nutsedge (Cyperus esculentus)
# Procedure, shortened: as §1
# [8] = Preemergence, 125 g ai/ha, 0 to 100 scale
# [9] = Postemergence, 250 g ai/ha, scale 0 to 100
compound,measurement,setting,value
"Cc1c(F)cccc1-n1c(-c2ccccc2)ncc(C(=O)C2=C(O)CCCC2=O)c1=O [Compound 47, 3-(3-fluoro-2-methylphenyl)-5-[(2-hydroxy-6-oxo-1-cyclohexen-1-yl)carbonyl]-2-phenyl-4(3H)-pyrimidinone]",pest or weed control at 250 g/ha,"[1]; 250 g ai/ha, 0 to 100 scale",98%
same,pest or weed control at 31 g/ha,"[1]; 31 g ai/ha, scale 0 to 100 (0 no effect, 100 complete control)",65%
same,pest or weed control at 62 g/ha,"[1]; 62 g ai/ha, scale 0 to 100, 0 no effect, 100 complete control",80%
same,Johnsongrass plant response rating,[2]; [8],80
same,pest or weed control at 125 g/ha,"[2]; Sorghum halepense, post-emergence, Postemergence, 125 g ai/ha, visual rating after 13 to 15 days, scale 0 (no effect) to 100 (complete control)",98%
same,pest or weed control at 250 g/ha,"[2]; Sorghum halepense, pre-emergence, 250 g ai/ha, Preemergence, 0 to 100 scale, read-out: Plant response rating, Johnsongrass",100%
same,pest or weed control at 31 g/ha,"[2]; Sorghum halepense, pre-emergence, Preemergence, 31 g ai/ha, scale 0 to 100 (0 no effect, 100 complete control), read-out: Plant response rating, Johnsongrass",65%
same,pest or weed control at 62 g/ha,"[2]; Sorghum halepense, pre-emergence, Preemergence, 62 g ai/ha, scale 0 to 100, 0 no effect, 100 complete control, read-out: Plant response rating, Johnsongrass",75%
same,pest or weed control at 62 g/ha,"kochia (Kochia scoparia); Bassia scoparia, post-emergence, 62 g ai/ha, scale 0 (no effect) to 100 (complete control), 13 to 15 days, read-out: Plant response rating, Kochia",95%
same,pest or weed control at 125 g/ha,"kochia (Kochia scoparia); Bassia scoparia, post-emergence, 125 g ai/ha, visual rating after 13 to 15 days, scale 0 (no effect) to 100 (complete control)",98%
same,Kochia plant response rating,"kochia (Kochia scoparia); 250 g ai/ha, scale 0 to 100",100
same,pest or weed control at 31 g/ha,"[3]; Digitaria sanguinalis, post-emergence, Postemergence, read-out: Plant response rating, Crabgrass, Large",85%
same,pest or weed control at 62 g/ha,"[3]; Digitaria sanguinalis, post-emergence, Postemergence, scale 0 (no effect) to 100 (complete control), 13 to 15 days, read-out: Plant response rating, Crabgrass, Large",85%
same,pest or weed control at 125 g/ha,"[3]; Digitaria sanguinalis, post-emergence, Postemergence, 125 g ai/ha, visual rating after 13 to 15 days, scale 0 (no effect) to 100 (complete control)",90%
same,pest or weed control at 250 g/ha,"[3]; Digitaria sanguinalis, pre-emergence, 250 g ai/ha, Preemergence, 0 to 100 scale, read-out: Plant response rating, Crabgrass, Large",100%
same,pest or weed control at 31 g/ha,"[3]; Digitaria sanguinalis, pre-emergence, Preemergence, read-out: Plant response rating, Crabgrass, Large",75%
same,pest or weed control at 62 g/ha,"[3]; Digitaria sanguinalis, pre-emergence, Preemergence, scale 0 to 100, 0 no effect, 100 complete control, read-out: Plant response rating, Crabgrass, Large",95%
same,"Crabgrass, Large plant response rating",[3]; [9],100
same,"Crabgrass, Large plant response rating",[3]; [8],100
same,pest or weed control at 62 g/ha,"[4]; Ipomoea, post-emergence, Postemergence, 62 g ai/ha, scale 0 (no effect) to 100 (complete control), 13 to 15 days, read-out: Plant response rating, Morningglory",80%
same,pest or weed control at 125 g/ha,"[4]; Ipomoea, post-emergence, Postemergence, 125 g ai/ha, visual rating after 13 to 15 days, scale 0 (no effect) to 100 (complete control)",90%
same,pest or weed control at 250 g/ha,"[4]; Ipomoea, pre-emergence, 250 g ai/ha, Preemergence, 0 to 100 scale, read-out: Plant response rating, Morningglory",55%
same,pest or weed control at 31 g/ha,"[4]; Ipomoea, pre-emergence, Preemergence, 31 g ai/ha, scale 0 to 100 (0 no effect, 100 complete control), read-out: Plant response rating, Morningglory",0%
same,Morningglory plant response rating,[4]; [8],0
same,plant injury at 62 g/ha,"soybean (Glycine max); Glycine max, post-emergence, Postemergence, 62 g ai/ha, scale 0 (no effect) to 100 (complete control), 13 to 15 days, read-out: Plant response rating, Soybean",95%
same,plant injury at 125 g/ha,"soybean (Glycine max); Glycine max, post-emergence, Postemergence, 125 g ai/ha, visual rating after 13 to 15 days, scale 0 (no effect) to 100 (complete control)",98%
same,plant injury at 250 g/ha,"soybean (Glycine max); Glycine max, pre-emergence, 250 g ai/ha, Preemergence, 0 to 100 scale, read-out: Plant response rating, Soybean",0%
same,plant injury at 31 g/ha,"soybean (Glycine max); Glycine max, pre-emergence, Preemergence, 31 g ai/ha, scale 0 to 100 (0 no effect, 100 complete control), read-out: Plant response rating, Soybean",0%
same,Soybean plant response rating,soybean (Glycine max); [8],0
same,pest or weed control at 62 g/ha,"[5]; Abutilon theophrasti, post-emergence, 360 h, Postemergence, 62 g ai/ha, scale 0 (no effect) to 100 (complete control), 13 to 15 days, read-out: Plant response rating, Velvetleaf",85%
same,pest or weed control at 125 g/ha,"[5]; Abutilon theophrasti, post-emergence, 360 h, Postemergence, 125 g ai/ha, visual rating after 13 to 15 days, scale 0 (no effect) to 100 (complete control)",98%
same,pest or weed control at 250 g/ha,"[5]; Abutilon theophrasti, pre-emergence, 360 h, 250 g ai/ha, Preemergence, 0 to 100 scale, read-out: Plant response rating, Velvetleaf",100%
same,pest or weed control at 31 g/ha,"[5]; Abutilon theophrasti, pre-emergence, 360 h, Preemergence, 31 g ai/ha, scale 0 to 100 (0 no effect, 100 complete control), read-out: Plant response rating, Velvetleaf",80%
same,Velvetleaf plant response rating,[5]; [8],90
same,pest or weed control at 62 g/ha,"wild oat (Avena fatua); Avena fatua, post-emergence, Postemergence, 62 g ai/ha, scale 0 (no effect) to 100 (complete control), 13 to 15 days, read-out: Plant response rating, Oat, Wild",60%
same,pest or weed control at 125 g/ha,"wild oat (Avena fatua); Avena fatua, post-emergence, Postemergence, 125 g ai/ha, visual rating after 13 to 15 days, scale 0 (no effect) to 100 (complete control)",60%
same,pest or weed control at 250 g/ha,"wild oat (Avena fatua); Avena fatua, pre-emergence, 250 g ai/ha, Preemergence, 0 to 100 scale, read-out: Plant response rating, Oat, Wild",10%
same,pest or weed control at 31 g/ha,"wild oat (Avena fatua); Avena fatua, pre-emergence, Preemergence, 31 g ai/ha, scale 0 to 100 (0 no effect, 100 complete control), read-out: Plant response rating, Oat, Wild",0%
same,"Oat, Wild plant response rating",wild oat (Avena fatua); [8],0
same,pest or weed control at 31 g/ha,"[6]; Eriochloa villosa, post-emergence, Postemergence, read-out: Plant response rating, Cupgrass, Woolly",85%
same,pest or weed control at 62 g/ha,"[6]; Eriochloa villosa, post-emergence, Postemergence, scale 0 (no effect) to 100 (complete control), 13 to 15 days, read-out: Plant response rating, Cupgrass, Woolly",90%
same,pest or weed control at 125 g/ha,"[6]; Eriochloa villosa, post-emergence, Postemergence, 125 g ai/ha, visual rating after 13 to 15 days, scale 0 (no effect) to 100 (complete control)",90%
same,pest or weed control at 250 g/ha,"[6]; Eriochloa villosa, pre-emergence, 250 g ai/ha, Preemergence, 0 to 100 scale, read-out: Plant response rating, Cupgrass, Woolly",90%
same,pest or weed control at 31 g/ha,"[6]; Eriochloa villosa, pre-emergence, Preemergence, read-out: Plant response rating, Cupgrass, Woolly",0%
same,pest or weed control at 62 g/ha,"[6]; Eriochloa villosa, pre-emergence, Preemergence, scale 0 to 100, 0 no effect, 100 complete control, read-out: Plant response rating, Cupgrass, Woolly",45%
same,"Cupgrass, Woolly plant response rating",[6]; [9],100
same,"Cupgrass, Woolly plant response rating",[6]; [8],75
same,pest or weed control at 62 g/ha,"[7]; Cyperus, post-emergence, Postemergence, 62 g ai/ha, scale 0 (no effect) to 100 (complete control), 13 to 15 days, read-out: Plant response rating, Nutsedge, Yellow",65%
same,pest or weed control at 125 g/ha,"[7]; Cyperus, post-emergence, Postemergence, 125 g ai/ha, visual rating after 13 to 15 days, scale 0 (no effect) to 100 (complete control)",70%
same,pest or weed control at 250 g/ha,"[7]; Cyperus, pre-emergence, 250 g ai/ha, Preemergence, 0 to 100 scale, read-out: Plant response rating, Nutsedge, Yellow",90%
same,pest or weed control at 31 g/ha,"[7]; Cyperus, pre-emergence, Preemergence, 31 g ai/ha, scale 0 to 100 (0 no effect, 100 complete control), read-out: Plant response rating, Nutsedge, Yellow",45%
same,"Nutsedge, Yellow plant response rating",[7]; [8],80
